Columns and labels:
U87MG tumor fragments = assay: animal or person; settings: for combination effect with temozolomide (median group tumor burden at Day 36): dosed in combination with 5 mg/kg temozolomide, FIG. 19
Experimental: HRLN female nu/nu mice were seeded with 1 mm^3 U87MG tumor fragments subcutaneously in the flank. Final caliper and body weight measurements were taken on the last day of the study.
All animals were assessed periodically for body weight, as well as tumor burden, using standard protocols with mechanical calipers. […] Dosing was stopped for any group with two measurements of mean body weight loss of greater than 20%. The group was not euthanized, and recovery was allowed. Within a group with greater than 20% weight loss, individuals reaching the individual body weight loss endpoint were euthanized. If the group body weight loss was recovered, dosing may resume. […] Dosing was then resumed with the candidate agent at half the original dose. Animals were monitored as a group. The endpoint of the experiment was a mean tumor weight in control group (or group 1) of 2000 mm^3 or 60 days, whichever comes first. When the endpoint was reached, all the animals were euthanized.

[1] = test system: U87MG human glioblastoma xenografts; assay: U87MG human glioblastoma xenograft, tumor growth delay, 49-day study (Example 2);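 note: female athymic nude mice with subcutaneous tumors, groups of ten, tumors measured twice weekly, endpoint at 2000 mm^3 tumor volume or Day 49, treated compared with control mice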
Experimental: The experiment consisted of groups (n=10) of female athymic nude mice bearing subcutaneous U87MG xenografts (75-144 mm^3) on Day 1. Candesartan was evaluated as monotherapies at dosages of 1, 5, 10 and 50 mg/kg administered intraperitoneally (i.p.) on a once daily for twenty-one days (qd×21) schedule. […] Dosing was initiated on Day 1, and tumors were measured twice each week until the study was ended on Day 49. Animals were monitored individually and each mouse was euthanized for endpoint when its tumor attained a volume of 2000 mm^3 (about 2 grams) or on the final day (Day 49), whichever came first. Tumor samples were collected at endpoint, and histopathology analyses were performed.
The time to endpoint (TTE) was calculated for each mouse. Treatment outcome was determined from percent tumor growth delay (% TGD), defined as the percent increase in median TTE of treated versus control mice, with differences in the TTE values between groups deemed statistically significant at P 0.05 using logrank survival analysis. Animals were also monitored for partial regression (PR) and complete regression (CR) responses. Treatment tolerability was assessed by body weight measurements and frequent observation for signs of treatment-related (TR) toxicity.
Treatment response was determined from an analysis of percent tumor growth delay (% TGD), defined as the percent increase in the median time to endpoint (TTE) in treated versus control mice; by logrank significance of differences in survival among treatment groups; and by regression responses. Plots of group mean tumor growth were also considered. Treatment tolerability was assessed by body weight measurements and frequent observation for clinical symptoms of treatment-related (TR) side effects.
Xenografts were initiated with U87MG human glioblastomas (Piedmont Research Center, Morrisville, N.C.) by serial subcutaneous transplantation in athymic nude mice. Each test mouse received a U87MG tumor fragment (1 mm^3) implanted subcutaneously in the right flank, and the growth of tumors was monitored as the average size approached the target range of 80 to 120 mm^3. […] Tumor volume was calculated using the formula: Tumor Volume (mm^3)=w^2×l/2 where w=width and l=length in mm of a U87MG tumor. Tumor weight may be estimated with the assumption that 1 mg is equivalent to 1 mm^3 of tumor volume. Therapeutic Agents
Doses of valsartan and candesartan were each formulated weekly, and were stored at 4° C. Valsartan dosing solutions were formulated at concentrations of 15 and 3 mg/mL to yield the desired 150 and 30 mg/kg dosages, respectively, in a dosing volume of 0.2 mL per 20 grams body weight (10 mL/kg). The required amount of valsartan powder for the 15 mg/mL solution was suspended in sterile saline, then dissolved with 0.1 N NaOH and pH adjusted to 7.4 with 0.1 N HCl. The 3 mg/mL valsartan dosing solution was prepared by diluting an aliquot of the 15 mg/mL valsartan solution with sterile saline. Candesartan doses were formulated in 0.5% carboxymethyl cellulose (CMC) in deionized water at concentrations of 5, 1, 0.5 and 0.1 mg/mL to yield the desired 50, 10, 5 and 1 mg/kg dosages, respectively, in a dosing volume of 10 mL/kg.
Each test agent was administered intraperitoneally (i.p.) once daily for twenty-one days (qd×21), unless otherwise indicated.
Group 1 was not treated and served as the control group for calculation of % TGD. […] Groups 4-7 received candesartan at 50, 10, 5 or 1 mg/kg, respectively. […] All doses were scaled to the body weights of the individual animals.
Tumors were measured twice each week using calipers.

[2] = combination: temozolomide 5 po qd x 5 + agent qd x 30 (doses as under E7)
[3] = combination: temozolomide 5 po qd x 5 + agent qd x 30 (doses as under E7), number of animals
[4] = Group 4: candesartan 50 mg/kg ip qd x 21
[5] = Group 5: candesartan 10 mg/kg ip qd x 21
[6] = Group 6: candesartan 5 mg/kg ip qd x 21
[7] = Group 7: candesartan 1 mg/kg ip qd x 21

## CCOC(=O)[C@H](CCc1ccccc1)N[C@@H](C)C(=O)N1CCC[C@H]1C(=O)O [Enalapril]
U87MG tumor fragments; [2]
  Deaths NTR (non-treatment-related death): 0
  Deaths TR (treatment-related death): 0

## CC(CCc1ccccc1)NCC(O)c1ccc(O)c(C(N)=O)c1 (stereo not drawn) [Labetalol]
U87MG tumor fragments; [2]
  Deaths NTR (non-treatment-related death): 0
  Deaths TR (treatment-related death): 0

## COCCCOc1cc(C[C@@H](C[C@H](N)[C@@H](O)C[C@H](C(=O)NCC(C)(C)C(N)=O)C(C)C)C(C)C)ccc1OC [aliskerin, aliskiren]
U87MG tumor fragments; [2]
  Deaths NTR (non-treatment-related death): 0
  Deaths TR (treatment-related death): 0

## COC(=O)C1=C(C)NC(C)=C(C(=O)OC(C)(C)CN(C)CCC(c2ccccc2)c2ccccc2)C1c1cccc([N+](=O)[O-])c1 (stereo not drawn) [lercanidipine]
U87MG tumor fragments
  combination effect with temozolomide (median group tumor burden at Day 36): modest combination effects

## CCCCC(=O)N(Cc1ccc(-c2ccccc2-c2nnn[nH]2)cc1)[C@H](C(=O)O)C(C)C [valsartan]
U87MG tumor fragments; [2]
  Deaths NTR (non-treatment-related death): 0
  Deaths TR (treatment-related death): 0

## CCCCC1=NC2(CCCC2)C(=O)N1Cc1ccc(-c2ccccc2-c2nnn[nH]2)cc1 [irbesartan]
U87MG tumor fragments; [2]
  Deaths NTR (non-treatment-related death): 0
  Deaths TR (treatment-related death): 0
  Mean BW Nadir, day of nadir: Day 3

## COc1ccccc1OCCNCC(O)COc1cccc2[nH]c3ccccc3c12 (stereo not drawn) [Carvedilol]
U87MG tumor fragments; [2]
  Deaths NTR (non-treatment-related death): 0
  Deaths TR (treatment-related death): 0

## CCOC(=O)[C@H](CCc1ccccc1)N[C@@H](C)C(=O)N1[C@H](C(=O)O)C[C@@H]2CCC[C@@H]21 [ramipril]
U87MG tumor fragments; [2]
  Deaths NTR (non-treatment-related death): 0
  Deaths TR (treatment-related death): 0
  Mean BW Nadir, day of nadir: Day 3
U87MG tumor fragments
  combination effect with temozolomide (median group tumor burden at Day 36): next in rank-order potency

## CCOc1nc2cccc(C(=O)OC(C)OC(=O)OC3CCCCC3)c2n1Cc1ccc(-c2ccccc2-c2nn[nH]n2)cc1 (stereo not drawn) [Candesartan, candesartan cilexetil]
U87MG tumor fragments; combination: temozolomide 5 po qd x 5 + agent qd x 30 (Candesartan 10 ip, Valsartan 30 ip, Carvedilol 200 po, Irbesartan 100 po, Amlodipine 10 ip, Clonidine 1 ip, Olmesartan 10 po, Ramipril 5 po, Enalapril 5 ip, Benazepril 10 ip, Quinapril 15 po, Aliskiren 50 ip, Guanabenz 1 ip, Diltiazem 20 po, Lercanidipine 3 po, Labetalol 10 sc)
  MTV(n) Day 29 (median tumor volume): 32 (8) mm^3
U87MG tumor fragments; [2]
  Deaths NTR (non-treatment-related death): 0
  Deaths TR (treatment-related death): 0
  Mean BW Nadir, day of nadir: Day 3
U87MG tumor fragments; [3]
  Regression CR (complete regression): 0
  Regression PR (partial regression): 6
U87MG tumor fragments; combination: temozolomide 5 po qd x 5 + agent qd x 30 (doses as under E7), vs Group 1 temozolomide 5 alone
  % TGI (percent tumor growth inhibition, compared to Group 1): 92%
[1]; [4]
  % TGD (vs Group 1): 9%
  Deaths NTR: 0
  Deaths TR: 0
  MTV (n) Day 49: 1 (1) mm^3
  Median TTE: 12.7 days
  Regressions CR: 1
  Regressions PR: 0
  Regressions TFS: 1
  T − C (TGD vs Group 1): 1.1 days
[1]; [5]
  % TGD (vs Group 1): 20%
  Deaths NTR: 0
  Deaths TR: 0
  Median TTE: 13.9 days
  Regressions CR: 0
  Regressions PR: 0
  Regressions TFS: 0
  T − C (TGD vs Group 1): 2.3 days
[1]; [6]
  % TGD (vs Group 1): 16%
  Deaths NTR: 0
  Deaths TR: 0
  Median TTE: 13.5 days
  Regressions CR: 0
  Regressions PR: 0
  Regressions TFS: 0
  T − C (TGD vs Group 1): 1.9 days
[1]; [7]
  % TGD (vs Group 1): 7%
  Deaths TR: 0
  Median TTE: 12.4 days
  Regressions CR: 0
  Regressions PR: 0
  Regressions TFS: 0
  T − C (TGD vs Group 1): 0.8 days
[1]; Group 7: candesartan 1 mg/kg ip qd x 21, accidental death on Day 5
  Deaths NTR: 1
[1]; candesartan monotherapy 1, 5, 10, 50 mg/kg i.p. qd×21
  efficacy conclusion: not efficacious as monotherapy

## COc1ccc([C@@H]2Sc3ccccc3N(CCN(C)C)C(=O)[C@@H]2OC(C)=O)cc1 [diltiazem]
U87MG tumor fragments; [2]
  Deaths NTR (non-treatment-related death): 0
  Deaths TR (treatment-related death): 0
U87MG tumor fragments
  combination effect with temozolomide (median group tumor burden at Day 36): modest combination effects

## CCOC(=O)C1=C(COCCN)NC(C)=C(C(=O)OC)C1c1ccccc1Cl (stereo not drawn) [amlodipine]
U87MG tumor fragments; [2]
  Deaths NTR (non-treatment-related death): 1
  Deaths TR (treatment-related death): 0
  Mean BW Nadir, day of nadir: Day 3

## CCOC(=O)[C@H](CCc1ccccc1)N[C@@H](C)C(=O)N1Cc2ccccc2C[C@H]1C(=O)O [quinapril]
U87MG tumor fragments; [2]
  Deaths NTR (non-treatment-related death): 0
  Deaths TR (treatment-related death): 0
  Mean BW Nadir, day of nadir: Day 3
U87MG tumor fragments
  combination effect with temozolomide (median group tumor burden at Day 36): next in rank-order potency

## N=C(N)N/N=C/c1c(Cl)cccc1Cl [Guanabenz]
U87MG tumor fragments; [2]
  Deaths NTR (non-treatment-related death): 0
  Deaths TR (treatment-related death): 0

## CCCc1nc(C(C)(C)O)c(C(=O)O)n1Cc1ccc(-c2ccccc2-c2nnn[nH]2)cc1 [olmesartan]
U87MG tumor fragments; [2]
  Mean BW Nadir, day of nadir: Day 3

## CCOC(=O)[C@H](CCc1ccccc1)N[C@H]1CCc2ccccc2N(CC(=O)O)C1=O [benazepril]
U87MG tumor fragments; [2]
  Deaths NTR (non-treatment-related death): 1
  Deaths TR (treatment-related death): 0
U87MG tumor fragments
  combination effect with temozolomide (median group tumor burden at Day 36): next in rank-order potency

## Clc1cccc(Cl)c1N=C1NCCN1 [Clonidine]
U87MG tumor fragments; [2]
  Deaths NTR (non-treatment-related death): 0
  Deaths TR (treatment-related death): 0
  Mean BW Nadir, day of nadir: Day 3
